Our source for the IC50 values is US7273863B1, “Benzophenones as inhibitors of reverse transcriptase” (SmithKline Beecham Corporation, priority 1999, dated 2007).

Format in all cases: cell-based
In experiment [1] the test system is isogenic HIV-1 RT mutant virus Y188C. Put plainly: HeLa cell assay (HIV-LTR β-galactosidase reporter). As to conditions: Human immunodeficiency virus 1, HeLa, read-out: IC50 (nM) Range. Summed up:
(§1)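 HeLa-CD4-LTR-β-gal cells, seeded overnight, were infected with isogenic recombinant HXB2 RT-mutant virus (50 to 70 total RLUs per well, DEAE-dextran) for 1.5 to 2 hours. Five-fold compound titrations (2 μM to 1 pM final, 0.1% DMSO) followed, with 72 h at 37° C. IC50 is chemiluminescent β-gal signal inhibition versus untreated controls.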

For experiment [2], the system named is isogenic HIV-1 RT mutant virus G190E. Put plainly: HeLa cell assay (HIV-LTR β-galactosidase reporter). Particulars: Human immunodeficiency virus 1, HeLa, read-out: IC50 (nM) Range. Summed up:
as §1

Experiment [3] has as its system isogenic HIV-1 RT mutant virus E138K. The experiment is described as follows: HeLa cell assay (HIV-LTR β-galactosidase reporter). As to conditions: Human immunodeficiency virus 1, HeLa, read-out: IC50 (nM) Range. Summed up:
as §1

The test system of experiment [4] is isogenic HIV-1 RT mutant virus K103N/L1001. The experiment is described as follows: HeLa cell assay (HIV-LTR β-galactosidase reporter). As to conditions: Human immunodeficiency virus 1, HeLa, read-out: IC50 (nM) Range. The method, boiled down: as §1
Experiment [5] relates to HIV-2. Put plainly: MT4 cell assay, antiviral HIV activity (propidium iodide). Particulars: Human immunodeficiency virus 2, Virus Type HIV-2, read-out: IC50 (nM) Range.

As a reminder, the IC50 is the concentration that inhibits the measured activity by half. On to `Cc1cc(S(N)(=O)=O)ccc1NC(=O)COc1ccc(Cl)cc1C(=O)c1cc(F)cc(C(F)(F)F)c1` [Compound 78], for which the IC50 in experiment [1], in experiment [2], in experiment [3] and in experiment [4] was less than 10 nM each time.
`Cc1cc2nc[nH]c2cc1NC(=O)COc1ccc(Cl)cc1C(=O)c1cc(F)cc(C(F)(F)F)c1` [Compound 239]: the half-maximal inhibitory concentration (IC50) in experiment [1], in experiment [2], in experiment [3] and in experiment [4] was less than 10 nM in each case.
Consider `Cc1cc2cn[nH]c2cc1NC(=O)COc1ccc(Cl)cc1C(=O)c1cccc(C#N)c1` [Compound 453], for which the IC50 in experiment [1] is less than 10 nM.
Take `Cc1cc(OCCCS(N)(=O)=O)ccc1NC(=O)COc1ccc(Cl)cc1C(=O)c1cc(F)cc(C(F)(F)F)c1` [Compound 257]: the IC50 in experiment [1], in experiment [2], in experiment [3] and in experiment [4] was less than 10 nM in each case.
Turning to `Cc1cc(S(N)(=O)=O)ccc1NC(=O)COc1ccc(Cl)cc1C(=O)c1cc(F)cc(F)c1` [Compound 62], the 50% inhibitory concentration (IC50) in experiment [5] was 1000 to 3000 nM; in experiment [1], less than 10 nM; in experiment [2] it was less than 10 nM; in experiment [3], less than 10 nM; in experiment [4] it was less than 10 nM.
As to `Cc1cc(S(N)(=O)=O)ccc1NC(=O)COc1ccc(Cl)cc1C(=O)c1cccc(C#N)c1` [Compound 448], the IC50 in experiment [5] is 1000 to 3000 nM; in experiment [1], less than 10 nM; in experiment [2], less than 10 nM; in experiment [3] it was less than 10 nM; in experiment [4] it was less than 10 nM.
